Measurements taken from article PMC6920357, “CETSA-based target engagement of taxanes as biomarkers for efficacy and resistance” (Scientific Reports, 2019).
Like-named read-outs stand apart in the source and are kept apart here.

System: T1, β-tubulin
T1 construct: gene TUBB; endogenous untagged beta-tubulin (isotypes not resolved) in microtubules with alpha-tubulin, intact human cancer cells
Test: isothermal dose response CETSA, AlphaLISA
Assay type: cell-based

CC(=O)O[C@@]12CO[C@@H]1C[C@H](O)[C@@]1(C)C(=O)[C@H](O)C3=C(C)[C@@H](OC(=O)[C@H](O)[C@@H](NC(=O)OC(C)(C)C)c4ccccc4)C[C@@](O)([C@@H](OC(=O)c4ccccc4)[C@H]21)C3(C)C [docetaxel]
EC50 (intact K562-P cells, 1 h 45 min at 37 °C, heated 63 °C 3 min, no tariquidar, taxane site, read-out: EC50): 300 ± 80 nM

CC(=O)O[C@H]1C(=O)[C@@]2(C)[C@H]([C@H](OC(=O)c3ccccc3)[C@]3(O)C[C@H](OC(=O)[C@H](O)[C@@H](NC(=O)c4ccccc4)c4ccccc4)C(C)=C1C3(C)C)[C@]1(OC(C)=O)CO[C@@H]1C[C@@H]2O [paclitaxel]
EC50: 1550 ± 300 nM

CCC1=C[C@@H]2CN(C1)Cc1c([nH]c3ccccc13)[C@@](C(=O)OC)(c1cc3c(cc1OC)N(C)[C@H]1[C@@](O)(C(=O)OC)[C@H](OC(C)=O)[C@]4(CC)C=CCN5CC[C@]31[C@@H]54)C2 [vinorelbine]
EC50 (intact PC346C prostate cancer cells, heated 63 °C, vinca site, read-out: EC50): 2020 ± 310 nM
